Here are results for one substance from patent US12702675B2, “Tetrahydrococannabinolic acid cocrystals” (Manoira Corporation, priority 2020, dated 2026).

Series [1] is described as follows: Solid-state stability study, accelerated conditions (40° C. and 75% relative humidity, 14 days). In kind it is physicochemical. The conditions noted are these: 40° C./75% RH, 2 weeks, sealed container. The protocol:
A study was carried out to examine the physical stability of the tetrahydrocannabinolic acid cocrystals with respect to solid form conversion or signs of decomposition over time under both ambient and accelerated conditions.

A short description of series [2]: Solid-state stability study, ambient conditions in clear glass vial for 6 months. Format: physicochemical.

As to “1:1 tetrahydrocannabinolic acid ethyl maltol cocrystal [1:1 THCA ETHYL MALTOL]”, the Appearance entry in series [1] (50 mg solid) and in series [2] (50 mg solid) was “No change” in each case. Besides, the XRPD analysis entry in series [1] (form change by XRPD) is on record as “slight signs of dissociation”; in series [2] (form change by XRPD), “No change”.
